The text below walks through data of paper PMC10893103, “Cyclodextrin-Enabled Enantioselective Complexation Study of Cathinone Analogs” (Molecules, 2024).

The nature of one series: Affinity capillary electrophoresis (ACE), pH 4.5. The following applies: 20 mM acetate buffer pH 4.5, 25C, 15 kV. The source says: The simplest way to determine the mobility is from the migration times (tmax) read from the electropherograms from which the apparent mobility could be calculated, but more accurate mobility values could be obtained by the determination with the Haarhoff–van der Linde (HVL) function based on Equation (2). (2) HVLδ(t;a0,a1,a2,a3δ)=a0/a2a3δ2πexp[−1/2(t−a1/a2)^2]/1/exp(a3δ)−1+1/2[1+erf(t−a1/2a2)] where a0 is the area of the HVL function, a1 is the position of the Gaussian component, a2 is the standard deviation of the Gaussian component, and a3δ is the peak shape distortion. The application of the HVL function is necessary in the case of accurate ACE measurements because, in several cases, the peaks are distorted due to the complex formation, which makes reading the migration times and calculating the mobility more difficult and imprecise.
The most popular technique for quantifying the analyte–ligand interaction with CE is mobility shift ACE. This technique involves varying the background electrolyte’s ligand concentrations while introducing a constant volume of the analyte and an EOF marker into the capillary. The analyte–ligand equilibrium is assumed to happen before the separation is complete, requiring fast complex formation kinetics. Typical ligand concentrations are 1–2 orders of magnitude greater than the analyte. The following equation describes the observed mobility as a function of the interaction with the following analyte ligand:(3) μ=μfff+μcfc where μ is the observed mobility, μf and μc are the electrophoretic mobility of the free and complexed analyte, and ff and fc are the free and ligand-bound fractions of the analyte.
Assuming a 1:1 binding stoichiometry, the effective mobility (μeff, calculated by correcting with the EOF marker mobility) can be expressed as (4) μeff=μfK+μc[L]/K+[L] where K is the equilibrium dissociation constant and [L] is the ligand concentration. The apparent complex stability constant (K) can be calculated using several methods, e.g., the X-reciprocal method with linear fitting, but non-linear curve fitting based on Equation (4) is more accurate. A hyperbolic growing or decline curve is obtained, and K could be determined by plotting the effective mobility as a function of the [L] (e.g., CD concentration) in the background electrolyte. The CEval software enables faster and simpler evaluation of electropherograms and further data processing to determine the stability constants of complexes with a 1:1 stoichiometric ratio [27].
During the ACE measurement series, the CD concentration is increased whilst injecting a constant amount of the cathinone derivatives and the EOF marker DMSO. The complex stability calculations were conducted with the CEval program applying the HVL function to eliminate the effect of electromigration dispersion on migration time for exact mobility and, thus complex stability constant determination. Viscosity correction and ionic strength correction were applied. […]
As for `O=S(=O)(O)OC[C@H]1O[C@@H]2O[C@H]3[C@H](O)[C@@H](O)[C@@H](O[C@H]4[C@H](O)[C@@H](O)[C@@H](O[C@H]5[C@H](O)[C@@H](O)[C@@H](O[C@H]6[C@H](O)[C@@H](O)[C@@H](O[C@H]7[C@H](O)[C@@H](O)[C@@H](O[C@H]8[C@H](O)[C@@H](O)[C@@H](O[C@H]1[C@H](O)[C@H]2O)O[C@@H]8COS(=O)(=O)O)O[C@@H]7COS(=O)(=O)O)O[C@@H]6COS(=O)(=O)O)O[C@@H]5COS(=O)(=O)O)O[C@@H]4COS(=O)(=O)O)O[C@@H]3COS(=O)(=O)O` [HS-β-CD, heptakis-(6-O-sulfo)-β-CD], the “Flephedrone–CD complex stability constant Kstab1 (first migrating enantiomer)” value came out at 635 ± 35 M⁻¹; the “Flephedrone–CD complex stability constant, Kstab2 (second migrating enantiomer)” value amounted to 615 ± 30 M⁻¹; the “MDPV–CD complex stability constant Kstab1 (first migrating enantiomer)” value came out at 500 ± 45 M⁻¹.

A further series is described as follows: Affinity capillary electrophoresis (ACE), pH 7.4. The conditions noted are these: 30 mM phosphate buffer pH 7.4, 25 °C, 15 kV. Summed up: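 Mobility-shift ACE of cathinone analogues with cyclodextrins (0.25–20 mM in BGE) in 30 mM phosphate pH 7.4, 25 °C, fused-silica capillary, 15 kV, UV 215 nm, DMSO as EOF marker. Mobilities obtained by HVL peak fitting; complex stability constants corrected for viscosity and ionic strength.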
`O=S(=O)(O)OC[C@H]1O[C@@H]2O[C@H]3[C@H](O)[C@@H](O)[C@@H](O[C@H]4[C@H](O)[C@@H](O)[C@@H](O[C@H]5[C@H](O)[C@@H](O)[C@@H](O[C@H]6[C@H](O)[C@@H](O)[C@@H](O[C@H]7[C@H](O)[C@@H](O)[C@@H](O[C@H]8[C@H](O)[C@@H](O)[C@@H](O[C@H]1[C@H](O)[C@H]2O)O[C@@H]8COS(=O)(=O)O)O[C@@H]7COS(=O)(=O)O)O[C@@H]6COS(=O)(=O)O)O[C@@H]5COS(=O)(=O)O)O[C@@H]4COS(=O)(=O)O)O[C@@H]3COS(=O)(=O)O` [HS-β-CD, heptakis-(6-O-sulfo)-β-CD]: the “Flephedrone–CD complex stability constant, Kstab2 (second migrating enantiomer)” value came out at 470 ± 65 M⁻¹ and the “Flephedrone–CD complex stability constant, Kstab/Kstab1 (unresolved or first migrating enantiomer)” value was 580 ± 14 M⁻¹.

For the molecule `COCC1OC2OC3C(COC)OC(OC4C(COC)OC(OC5C(COC)OC(OC6C(COC)OC(OC7C(COC)OC(OC8C(COC)OC(OC1C(OC)C2OC)C(OC)C8OC)C(OC)C7OC)C(OC)C6OC)C(OC)C5OC)C(OC)C4OC)C(OC)C3OC` (stereo not drawn) [TRIME-β-CD, permethylated-β-CD], the “4-MEC–CD complex stability constant, Kstab/Kstab1 (unresolved or first migrating enantiomer)” value came to 60 ± 15 M⁻¹; the “Butylone–CD complex stability constant, Kstab/Kstab1 (unresolved or first migrating enantiomer)” value came to 20 ± 2 M⁻¹; the “Flephedrone–CD complex stability constant, Kstab/Kstab1 (unresolved or first migrating enantiomer)” value is < 10 M⁻¹; the “MDPV–CD complex stability constant, Kstab/Kstab1 (unresolved or first migrating enantiomer)” value was 40 ± 10 M⁻¹. Besides, the “Mephedrone–CD complex stability constant, Kstab/Kstab1 (unresolved or first migrating enantiomer)” value came to 20 ± 3 M⁻¹.

For the molecule `OC[C@H]1O[C@@H]2O[C@H]3[C@H](O)[C@@H](O)[C@@H](O[C@H]4[C@H](O)[C@@H](O)[C@@H](O[C@H]5[C@H](O)[C@@H](O)[C@@H](O[C@H]6[C@H](O)[C@@H](O)[C@@H](O[C@H]7[C@H](O)[C@@H](O)[C@@H](O[C@H]8[C@H](O)[C@@H](O)[C@@H](O[C@H]9[C@H](O)[C@@H](O)[C@@H](O[C@H]1[C@H](O)[C@H]2O)O[C@@H]9CO)O[C@@H]8CO)O[C@@H]7CO)O[C@@H]6CO)O[C@@H]5CO)O[C@@H]4CO)O[C@@H]3CO` [γ-CD], the “4-MEC–CD complex stability constant, Kstab/Kstab1 (unresolved or first migrating enantiomer)” value was 90 ± 15 M⁻¹; the “Butylone–CD complex stability constant, Kstab/Kstab1 (unresolved or first migrating enantiomer)” value is 30 ± 3 M⁻¹; the “Flephedrone–CD complex stability constant, Kstab/Kstab1 (unresolved or first migrating enantiomer)” value is 125 ± 10 M⁻¹; the “MDPV–CD complex stability constant, Kstab/Kstab1 (unresolved or first migrating enantiomer)” value amounted to 100 ± 10 M⁻¹. For the same molecule, the “Mephedrone–CD complex stability constant, Kstab/Kstab1 (unresolved or first migrating enantiomer)” value stood at 60 ± 10 M⁻¹.

Consider “sulfobutyl-ether-β-CD [SBE-β-CD (DS~6.5)]”, for which the “4-MEC–CD complex stability constant, Kstab2 (second migrating enantiomer)” value is 660 ± 35 M⁻¹; the “4-MEC–CD complex stability constant, Kstab/Kstab1 (unresolved or first migrating enantiomer)” value came out at 560 ± 35 M⁻¹; the “Flephedrone–CD complex stability constant, Kstab2 (second migrating enantiomer)” value was determined as 200 ± 12 M⁻¹; the “Flephedrone–CD complex stability constant, Kstab/Kstab1 (unresolved or first migrating enantiomer)” value was determined as 200 ± 20 M⁻¹. The “Mephedrone–CD complex stability constant, Kstab2 (second migrating enantiomer)” value came to 500 ± 40 M⁻¹ and the “Mephedrone–CD complex stability constant, Kstab/Kstab1 (unresolved or first migrating enantiomer)” value is 500 ± 20 M⁻¹.

For `O=C(O)CCSC[C@H]1O[C@@H]2O[C@H]3[C@H](O)[C@@H](O)[C@@H](O[C@H]4[C@H](O)[C@@H](O)[C@@H](O[C@H]5[C@H](O)[C@@H](O)[C@@H](O[C@H]6[C@H](O)[C@@H](O)[C@@H](O[C@H]7[C@H](O)[C@@H](O)[C@@H](O[C@H]8[C@H](O)[C@@H](O)[C@@H](O[C@H]9[C@H](O)C(O)[C@@H](O[C@H]1[C@H](O)[C@H]2O)O[C@@H]9CSCCC(=O)O)O[C@@H]8CSCCC(=O)O)O[C@@H]7CSCCC(=O)O)O[C@@H]6CSCCC(=O)O)O[C@@H]5CSCCC(=O)O)O[C@@H]4CSCCC(=O)O)O[C@@H]3CSCCC(=O)O` (stereo partly drawn) [SGX, octakis(6-deoxy-6-(2-carboxyethyl)thio)-γ-CD], the “4-MEC–CD complex stability constant, Kstab2 (second migrating enantiomer)” value was found to be 960 ± 95 M⁻¹; the “4-MEC–CD complex stability constant, Kstab/Kstab1 (unresolved or first migrating enantiomer)” value was 975 ± 90 M⁻¹; the “Flephedrone–CD complex stability constant, Kstab/Kstab1 (unresolved or first migrating enantiomer)” value turned out to be 315 ± 20 M⁻¹; the “Mephedrone–CD complex stability constant, Kstab/Kstab1 (unresolved or first migrating enantiomer)” value was 825 ± 65 M⁻¹.

Turning to sulfopropylated-γ-CD [SP-γ-CD], the “4-MEC–CD complex stability constant, Kstab/Kstab1 (unresolved or first migrating enantiomer)” value worked out at 70 ± 10 M⁻¹; the “Butylone–CD complex stability constant, Kstab/Kstab1 (unresolved or first migrating enantiomer)” value was 70 ± 10 M⁻¹; the “Flephedrone–CD complex stability constant, Kstab/Kstab1 (unresolved or first migrating enantiomer)” value was < 10 M⁻¹; the “MDPV–CD complex stability constant, Kstab/Kstab1 (unresolved or first migrating enantiomer)” value turned out to be 140 ± 20 M⁻¹. Moreover, the “Mephedrone–CD complex stability constant, Kstab/Kstab1 (unresolved or first migrating enantiomer)” value was determined as 45 ± 4 M⁻¹.

For carboxyethylated-β-CD [CE-β-CD], the “4-MEC–CD complex stability constant, Kstab/Kstab1 (unresolved or first migrating enantiomer)” value came to 590 ± 40 M⁻¹; the “Butylone–CD complex stability constant, Kstab/Kstab1 (unresolved or first migrating enantiomer)” value was determined as 975 ± 95 M⁻¹; the “Flephedrone–CD complex stability constant, Kstab/Kstab1 (unresolved or first migrating enantiomer)” value worked out at 150 ± 10 M⁻¹; the “Mephedrone–CD complex stability constant, Kstab2 (second migrating enantiomer)” value came to 430 ± 25 M⁻¹. The “Mephedrone–CD complex stability constant, Kstab/Kstab1 (unresolved or first migrating enantiomer)” value is 400 ± 30 M⁻¹.

For the molecule hydroxypropylated-γ-CD [HP-γ-CD], the “4-MEC–CD complex stability constant, Kstab/Kstab1 (unresolved or first migrating enantiomer)” value was 40 ± 4 M⁻¹; the “Butylone–CD complex stability constant, Kstab/Kstab1 (unresolved or first migrating enantiomer)” value was found to be 40 ± 5 M⁻¹; the “Flephedrone–CD complex stability constant, Kstab/Kstab1 (unresolved or first migrating enantiomer)” value was determined as 220 ± 35 M⁻¹; the “MDPV–CD complex stability constant, Kstab/Kstab1 (unresolved or first migrating enantiomer)” value came out at 50 ± 10 M⁻¹. The “Mephedrone–CD complex stability constant, Kstab/Kstab1 (unresolved or first migrating enantiomer)” value amounted to 25 ± 3 M⁻¹.

As to `O=C(O)CCSC[C@H]1O[C@@H]2O[C@H]3[C@H](O)[C@@H](O)[C@@H](O[C@H]4[C@H](O)[C@@H](O)[C@@H](O[C@H]5[C@H](O)[C@@H](O)[C@@H](O[C@H]6[C@H](O)[C@@H](O)[C@@H](O[C@H]7[C@H](O)[C@@H](O)[C@@H](O[C@H]8[C@H](O)[C@@H](O)[C@@H](O[C@H]1[C@H](O)[C@H]2O)O[C@@H]8CSCCC(=O)O)O[C@@H]7CSCCC(=O)O)O[C@@H]6CSCCC(=O)O)O[C@@H]5CSCCC(=O)O)O[C@@H]4CSCCC(=O)O)O[C@@H]3CSCCC(=O)O` [SBX, heptakis-(6-deoxy-6-(2-carboxyethyl)thio)-β-CD], the “Flephedrone–CD complex stability constant, Kstab2 (second migrating enantiomer)” value came out at 610 ± 45 M⁻¹; the “Flephedrone–CD complex stability constant, Kstab/Kstab1 (unresolved or first migrating enantiomer)” value came to 575 ± 35 M⁻¹; the “MDPV–CD complex stability constant, Kstab2 (second migrating enantiomer)” value is on record as 12,830 ± 900 M^−1.

For `CO[C@@H]1[C@@H](OC)[C@H]2O[C@H]3[C@H](OC)[C@@H](OC)[C@@H](O[C@H]4[C@H](OC)[C@@H](OC)[C@@H](O[C@H]5[C@H](OC)[C@@H](OC)[C@@H](O[C@H]6[C@H](OC)[C@@H](OC)[C@@H](O[C@H]7[C@H](OC)[C@@H](OC)[C@@H](O[C@@H]1[C@@H](COS(=O)(=O)O)O2)O[C@@H]7COS(=O)(=O)O)O[C@@H]6COS(=O)(=O)O)O[C@@H]5COS(=O)(=O)O)O[C@@H]4COS(=O)(=O)O)O[C@@H]3COS(=O)(=O)O` [HxDMS-α-CD, hexakis-(2,3-O-dimethyl, 6-O-sulfo)-α-CD], the “4-MEC–CD complex stability constant, Kstab/Kstab1 (unresolved or first migrating enantiomer)” value is 55 ± 15 M⁻¹; the “Butylone–CD complex stability constant, Kstab/Kstab1 (unresolved or first migrating enantiomer)” value is 550 ± 95 M⁻¹; the “Flephedrone–CD complex stability constant, Kstab/Kstab1 (unresolved or first migrating enantiomer)” value amounted to 105 ± 12 M⁻¹; the “MDPV–CD complex stability constant, Kstab/Kstab1 (unresolved or first migrating enantiomer)” value was found to be 220 ± 30 M⁻¹. The “Mephedrone–CD complex stability constant, Kstab/Kstab1 (unresolved or first migrating enantiomer)” value came to 270 ± 110 M⁻¹.
